The text below walks through data of article doi:10.1101/2025.05.23.655736v2 (biorxiv, 2025).

Test [1] has as its target T1, PcsBCHAP (CHAP domain of PcsB) (Streptococcus pneumoniae, UniProt A0A0H2ZQ76).
T1 sequence (A0A0H2ZQ76 274-392): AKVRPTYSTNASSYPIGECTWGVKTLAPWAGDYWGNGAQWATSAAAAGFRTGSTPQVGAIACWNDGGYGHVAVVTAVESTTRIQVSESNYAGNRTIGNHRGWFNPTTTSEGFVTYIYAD
The experiment in a line: biochemical. Conditions: read-out: ka (1/Ms).

The target of test [2] is T1, PcsBCHAP (CHAP domain of PcsB). Nature of the test: biochemical. As to conditions: read-out: kd (1/s).
Test [3] has the same target. Nature of the test: SPR. Format: binding.

*1 amine or outer side, *2 acyl side, *3 side chain or, on linkers, in order; H or OH if unused. Where a SMILES comes first, the peptide text is derived from it. [ ]: non-standard residue; d: D form. d(isoGln) = NC(=O)[C@@H](CCC(=O)[*:2])N[*:1]

Regarding `C[C@H](N)C(=O)N[C@H](CCC(=O)N[C@@H](CCCCN)C(=O)N[C@H](C)C(=O)N[C@H](C)C(=O)O)C(=O)O` [AEKADAD], the kon in test [1] is 33300 M⁻¹ s⁻¹. In test [2], the koff is 0.036 s⁻¹.

Turning to `C[C@H](N)C(=O)N[C@H](CCC(=O)N[C@@H](CCCCN)C(=O)N[C@H](C)C(=O)N[C@H](C)C(=O)O)C(N)=O` [AiQKADAD] (H-A[d(isoGln)]K[dA][dA]-OH), the kon in test [1] amounted to 99600 M⁻¹ s⁻¹. Moreover, the koff in test [2] amounted to 0.00502 s⁻¹.

`CC(=O)N[C@H]1C(O)O[C@H](CO)[C@@H](O)[C@@H]1O[C@H](C)C(=O)N[C@@H](C)C(=O)N[C@H](CCC(=O)N[C@@H](CCC[C@@H](N)C(=O)O)C(=O)O)C(=O)O` (stereo partly shown) [M-TriDAP]: the kon in test [1] worked out at 6280 M⁻¹ s⁻¹. Also, the koff in test [2] stood at 0.00394 s⁻¹.

Consider `CC(=O)N[C@H]1C(O)O[C@H](CO)[C@@H](O)[C@@H]1O[C@H](C)C(=O)N[C@@H](C)C(=O)N[C@H](CCC(=O)N[C@@H](CCCCN)C(=O)O)C(N)=O` (stereo partly shown) [M-TriLYS], for which the kon in test [1] was found to be 98200 M⁻¹ s⁻¹. The koff in test [2] was 0.0117 s⁻¹.

On to `N[C@H](CCC(=O)N[C@H](CCC[C@H](N)C(=O)O)C(=O)O)C(=O)O` [iE-DAP], for which the kon in test [1] worked out at 158000 M⁻¹ s⁻¹. Moreover, the koff in test [2] came out at 0.017 s⁻¹.

As for `NCCCC[C@H](NC(=O)CC[C@@H](N)C(=O)O)C(=O)O` [iE-Lys], the dissociation constant (Kd) in test [3] was determined as 94.1 nM. Also, in test [1], the kon stood at 102000 M⁻¹ s⁻¹. In addition, the koff in test [2] is 0.00956 s⁻¹.
